Usually melting point stands for the temperature of the solid-liquid transition.

Each structure is given as a SMILES string. Some results are limits rather than exact numbers.

The subject of one data set is formalin induced pain response. Briefly: Formalin induced pain or paw oedema in mice. The format is in vivo. The settings on record: 0.1 mg/kg; NMRI female mice, 20 μl 1% formalin into left hind paw. Here is the method: Values for in vivo inhibition of formalin induced pain or oedema for the compounds of the present invention were assessed in mice essentially by the method of Wheeler-Aceto and Cowan (Agents Action 1991, 34, 265-269).
About 20 g NMRI female mice were injected 20 μl 1% formalin into the left hind paw. The animals were then placed on a heated (31° C.) table, and the pain response was scored. After 1 h they were killed and bled. Left and right hind paws were removed and the weight difference between the paws was used as indication of the oedema response of the formalin injected paw.
Turning to `Cl.NC(=O)C1CCCN(CCCN2c3ccccc3CCc3ccccc32)C1` (stereo not shown) [Example 4, 1-(3-(10,11-Dihydro-5H-dibenz[b,f]azepin-5-yl)-1-propyl)-3-piperidinecarboxamide Hydrochloride], the “% Pain inhibition (inhibition of formalin induced pain response)” value is 47%.
Regarding `Cl.O=C(O)C1Cc2ccccc2CN1CCCN1c2ccccc2CCc2ccccc21` (stereo not shown) [Example 9, 2-(3-(10,11-Dihydro-5H-dibenz[b,f]azepin-5-yl)-1-propyl)-1,2,3,4-tetrahydro-3-isoquinolinecarboxylic Acid Hydrochloride], the “% Pain inhibition (inhibition of formalin induced pain response)” value stood at 29%.
On the same count and under the same terms, then `Cl.O=C(O)C1CCCCN1CCCN1c2ccccc2CCc2ccccc21` (stereo not shown) [Example 5, 1-(3-(10,11-Dihydro-5H-dibenz[b,f]azepin-5-yl)-1-propyl)-2-piperidinecarboxylic Acid Hydrochloride], with 36%; and `Cl.OC1(c2ccc(Cl)cc2)CCN(CCCN2c3ccccc3CCc3ccccc32)CC1` [Example 2, 4-(4-Chlorophenyl)-1-(3-(10,11-dihydro-5H-dibenz[b,f]azepin-5-yl)-1-propyl)piperidin-4-ol Hydrochloride], with 13%; and `Cl.O=C(O)C1CN(CCCN2c3ccccc3CCc3ccccc32)CCO1` (stereo not shown) [Example 8, 4-(3-(10,11-Dihydro-5H-dibenz[b,f]azepin-5-yl)-1-propyl)-2-morpholinecarboxylic Acid Hydrochloride], with 34%.

System in the next data set: not given
Assay: not given
Details: not given
Regarding `Cl.O=C(O)C1CCN(CCCN2c3ccc(Br)cc3CCc3cc(Br)ccc32)CC1` (hydrate or solvate), the melting point was in the range of 165 to 166 °C.
Same read-out and setting: under `Cl.O=C(O)CC1CCN(CCCN2c3ccccc3CCc3ccccc32)CC1` stands 185 to 188 °C.
Compound `Cl.O=C(O)C1CCN(CCCN2c3ccccc3CCc3ccccc32)CC1` had a melting point of 195 to 197 °C.
Still for that read-out and setting: under `CN(C)c1ccc2c(c1)N(CCCN1CCC(C(=O)O)CC1)c1ccccc1CC2` (hydrate or solvate) [Example 25, 1-(3-(3-Dimethylamino-10,11-dihydro-5H-dibenz[b,f]azepin-5-yl)-1-propyl)-4-piperidinecarboxylic Acid] stands 198 to 202 °C; under `Cl.O=C(O)C1CCN(CCC=C2c3ccccc3CCc3ccccc32)CC1`, 224 to 226 °C; under `Cl.O=C(O)C1CN(CCCN2c3ccccc3CCc3ccccc32)CCO1` (stereo not shown) (hydrate or solvate) [Example 8, 4-(3-(10,11-Dihydro-5H-dibenz[b,f]azepin-5-yl)-1-propyl)-2-morpholinecarboxylic Acid Hydrochloride], 196 to 199 °C.
For the compound `Cc1ccc2c(c1)N(CCCN1CCC(C(=O)O)CC1)c1cc(C)ccc1CC2` (hydrate or solvate) [Example 24, 1-(3-(3,7-Dimethyl-10,11-dihydro-5H-dibenz[b,f]azepin-5-yl)-1-propyl)-4-piperidinecarboxylic Acid], the melting point fell in the range of 207 to 209 °C.
Same read-out and setting: then `Cl.O=C(O)CC1CCCN(CCCN2c3ccccc3CCc3ccccc32)C1` (stereo not shown), with 233 to 235 °C; and `Cc1ccc2c(c1)C(=CCCN1CCC(C(=O)O)CC1)c1ccccc1CC2.Cl`, with more than 250 °C.
Still for that read-out and setting: under `Cl.O=C(O)C1Cc2ccccc2CN1CCCN1c2ccccc2CCc2ccccc21` (stereo not shown) (hydrate or solvate) [Example 9, 2-(3-(10,11-Dihydro-5H-dibenz[b,f]azepin-5-yl)-1-propyl)-1,2,3,4-tetrahydro-3-isoquinolinecarboxylic Acid Hydrochloride] stands 205 to 208 °C; under `Cl.OCC1CCCN(CCCN2c3ccccc3CCc3ccccc32)C1` (stereo not shown), 145 to 147 °C; under `O=C([O-])C1CN(CCCN2c3ccccc3CCc3ccccc32)CCN1.[K+]` (stereo not shown) (hydrate or solvate), 151 to 155 °C.
Same read-out and setting: then `Cl.O=C(O)C1CCN(CCCN2c3cc(Cl)ccc3CCc3ccc(Cl)cc32)CC1`, with 237 to 239 °C; and `CC1C(C(=O)O)CCCN1CCCN1c2ccccc2CCc2ccccc21.Cl` (stereo not shown) (hydrate or solvate), with 169 to 170 °C.
On to `Cl.O=C(O)C1CCN(CCCN2c3ccccc3Oc3ccccc32)CC1`, for which the melting point was in the range of 196 to 198 °C.
In turn, `Cl.NC(=O)[C@@H]1CCCN(CCC=C2c3ccccc3CCc3ccccc32)C1` registered a melting point of more than 250 °C.
Still for that read-out and setting: under `Cl.O=C(O)C1CCCCN1CCCN1c2ccccc2CCc2ccccc21` (stereo not shown) (hydrate or solvate) [Example 5, 1-(3-(10,11-Dihydro-5H-dibenz[b,f]azepin-5-yl)-1-propyl)-2-piperidinecarboxylic Acid Hydrochloride] stands 122 to 126 °C.

(Values after patent publication US6613791B1, “N-substituted azaheterocyclic carboxylic acids and their use” (Novo Nordisk A/S, priority 1994, dated 2003).)
